Source: article PMC10046961, “High-Throughput Screening Assay for Detecting Drug-Induced Changes in Synchronized Neuronal Oscillations and Potential Seizure Risk Based on Ca^2+ Fluorescence Measurements in Human Induced Pluripotent Stem Cell (hiPSC)-Derived Neuronal 2D and 3D Cultures” (Cells, 2023)
Read-outs that look alike come from different tables or passages of the source. Marks after values point to notes of the source that are not given here.

Legend:
[1] = tested on: hiPSC-derived neurons co-cultured with human primary astrocytes in 3D; experiment: Ca2+ transient oscillation assay (FDSS), 3D spheroids; type: cell-based; settings: 60 min
Method in brief: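 Fura-2 fluorescence was read twice for 20 min each: a baseline 10 min after 0.04% DMSO, and again 60 min after compound addition at nominal final concentration. The 3D co-cultures (1:1 hiPSC neurons from a donor and human astrocytes, 8000 each) matured 5 weeks in BrainPhys medium after a 1-week differentiation.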

[2] = ref PharmaPendium, cited from earlier work
[3] = tested on: hiPSC-derived neurons co-cultured with human primary astrocytes in 2D; experiment: Ca2+ transient oscillation assay (FDSS), 2D co-culture; type: cell-based; settings: for activation at 0.37 µM / activation at 1.11 µM / activation at 3.33 µM / activation at 10 µM / activation at 30 µM: Homo sapiens, 1 h, 60 min
Method in brief: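 hiPSC-derived excitatory neurons (CW50065, Quick-Neuron EX-SeV) co-cultured with human primary astrocytes at 4:1 (10,000:2500 cells per well). Cal-520-loaded cells in HBSS with 2 mM CaCl2 and 10 mM HEPES were pretreated with 0.04% DMSO.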

[4] = Table 1, peak plasma concentration in men, free therapeutic Cmax
[5] = Table 2, highest plasma concentration in humans after the therapeutic dose
[6] = read-out: Area under the curve - 2D Mean
[7] = read-out: Peak amplitude - 2D Mean
[8] = read-out: Peak-to-peak interval - 2D Mean

CC[C@@H]1C(=O)OC[C@@H]1Cc1cncn1C [Pilocarpine]
Area under the curve - 3D Mean ([1]; 0.37 µM): 141.5 % change from baseline
Peak Number—3D Mean ([1]; 0.37 µM): 16.7 % change from baseline
Peak amplitude - 3D Mean ([1]; 0.37 µM): 115.6 % change from baseline
Peak width - 3D Mean ([1]; 0.37 µM): 6.3 % change from baseline
Peak-to-peak interval - 3D Mean ([1]; 0.37 µM): −10.1 % change from baseline
Area under the curve - 3D Mean ([1]; 1.11 µM): 173.5 % change from baseline
Peak Number—3D Mean ([1]; 1.11 µM): 23.9 % change from baseline
Peak amplitude - 3D Mean ([1]; 1.11 µM): 145.8 % change from baseline
Peak width - 3D Mean ([1]; 1.11 µM): 6.7 % change from baseline
Peak-to-peak interval - 3D Mean ([1]; 1.11 µM): −10.0 % change from baseline
Area under the curve - 3D Mean ([1]; 3.33 µM): 168.7 % change from baseline
Peak Number—3D Mean ([1]; 3.33 µM): 12.9 % change from baseline
Peak amplitude - 3D Mean ([1]; 3.33 µM): 135.3 % change from baseline
Peak width - 3D Mean ([1]; 3.33 µM): 10.2 % change from baseline
Peak-to-peak interval - 3D Mean ([1]; 3.33 µM): −3.3 % change from baseline
Area under the curve - 3D Mean ([1]; 10 µM): 145.2 % change from baseline
Peak Number—3D Mean ([1]; 10 µM): 23.1 % change from baseline
Peak amplitude - 3D Mean ([1]; 10 µM): 122.5 % change from baseline
Peak width - 3D Mean ([1]; 10 µM): 7.0 % change from baseline
Peak-to-peak interval - 3D Mean ([1]; 10 µM): −12.6 % change from baseline
Free Cmax [2, 4]: 30 to 550 nM
Free Cmax [2, 5]: 30 to 550 nM
effect on peak number / Ca2+ neuronal oscillations, in words ([3]; 2D format): significantly increased peak number
activation at 0.37 µM [3, 6]: 26.7%
activation at 0.37 µM ([3]; read-out: Peak Number—2D Mean): 11.5%
activation at 0.37 µM [3, 7]: 9.3%
activation at 0.37 µM ([3]; read-out: Peak width - 2D Mean): 19.2%
activation at 0.37 µM [3, 8]: 1.3%
activation at 1.11 µM [3, 6]: 38.8%
activation at 1.11 µM ([3]; read-out: Peak Number—2D Mean): 8.3%
activation at 1.11 µM [3, 7]: 8%
activation at 1.11 µM ([3]; read-out: Peak width - 2D Mean): 35.7%
activation at 1.11 µM [3, 8]: 5.8%
activation at 3.33 µM [3, 6]: 26.7%
activation at 3.33 µM ([3]; read-out: Peak Number—2D Mean): 34.3%
activation at 3.33 µM [3, 7]: 5.8%
activation at 3.33 µM ([3]; read-out: Peak width - 2D Mean): 23.2%
activation at 3.33 µM [3, 8]: -9.2%
activation at 10 µM [3, 6]: 22.8%
activation at 10 µM ([3]; read-out: Peak Number—2D Mean): -19.2%
activation at 10 µM [3, 7]: 3.8%
activation at 10 µM ([3]; read-out: Peak width - 2D Mean): 23%
activation at 10 µM [3, 8]: 29.8%

CC(=O)Nc1ccc(O)cc1 [Acetaminophen]
Area under the curve - 3D Mean ([1]; 1.11 µM): 104.3 % change from baseline
Peak Number—3D Mean ([1]; 1.11 µM): 2.2 % change from baseline
Peak amplitude - 3D Mean ([1]; 1.11 µM): 97.4 % change from baseline
Peak width - 3D Mean ([1]; 1.11 µM): 0.6 % change from baseline
Peak-to-peak interval - 3D Mean ([1]; 1.11 µM): 12.7 % change from baseline
Area under the curve - 3D Mean ([1]; 3.33 µM): 121.7 % change from baseline
Peak Number—3D Mean ([1]; 3.33 µM): −3.0 % change from baseline
Peak amplitude - 3D Mean ([1]; 3.33 µM): 106.4 % change from baseline
Peak width - 3D Mean ([1]; 3.33 µM): 5.9 % change from baseline
Peak-to-peak interval - 3D Mean ([1]; 3.33 µM): 17.4 % change from baseline
Area under the curve - 3D Mean ([1]; 10 µM): 122.4 % change from baseline
Peak Number—3D Mean ([1]; 10 µM): 12.5 % change from baseline
Peak amplitude - 3D Mean ([1]; 10 µM): 108.6 % change from baseline
Peak width - 3D Mean ([1]; 10 µM): 6.3 % change from baseline
Peak-to-peak interval - 3D Mean ([1]; 10 µM): −6.2 % change from baseline
Area under the curve - 3D Mean ([1]; 30 µM): 132.0 % change from baseline
Peak Number—3D Mean ([1]; 30 µM): 47.2 * % change from baseline
Peak amplitude - 3D Mean ([1]; 30 µM): 113.9 % change from baseline
Peak width - 3D Mean ([1]; 30 µM): 9.0 % change from baseline
Peak-to-peak interval - 3D Mean ([1]; 30 µM): −8.8 % change from baseline
Free Cmax [2, 4]: 460 nM
Free Cmax [2, 5]: 460 nM
effect on peak count within expected therapeutic exposure levels ([3]; 2D): did not significantly reduce peak count
effect on Ca2+ neuronal oscillations / peak count at 30 µM, in words ([3]; 2D, 30 µM, listed as Paracetamol): did reduce
activation at 1.11 µM [3, 6]: 23%
activation at 1.11 µM ([3]; read-out: Peak Number—2D Mean): -11.7%
activation at 1.11 µM [3, 7]: 8.8%
activation at 1.11 µM ([3]; read-out: Peak width - 2D Mean): 13%
activation at 1.11 µM [3, 8]: 34%
activation at 3.33 µM [3, 6]: 35.8%
activation at 3.33 µM ([3]; read-out: Peak Number—2D Mean): -25%
activation at 3.33 µM [3, 7]: 12.3%
activation at 3.33 µM ([3]; read-out: Peak width - 2D Mean): 34.3%
activation at 3.33 µM [3, 8]: -35.3%
activation at 10 µM [3, 6]: 13.2%
activation at 10 µM ([3]; read-out: Peak Number—2D Mean): -18.2%
activation at 10 µM [3, 7]: -0.3%
activation at 10 µM ([3]; read-out: Peak width - 2D Mean): 16.2%
activation at 10 µM [3, 8]: -14.5%
activation at 30 µM ([3]; 30 µM, read-out: Area under the curve - 2D Mean): -93.2%
activation at 30 µM ([3]; 30 µM, read-out: Peak Number—2D Mean): -94.5%
activation at 30 µM ([3]; 30 µM, read-out: Peak amplitude - 2D Mean): -89.8%
activation at 30 µM ([3]; 30 µM, read-out: Peak width - 2D Mean): -92.5%
activation at 30 µM ([3]; 30 µM, read-out: Peak-to-peak interval - 2D Mean): -100%
